From patent US20250276983A1, “COMPOUNDS AND METHODS FOR MODULATING HER2” (IAMBIC THERAPEUTICS, INC., priority 2022, published 2025)
Where two headings read alike, the source gives them in different places.

Legend:
Format in all cases: cell-based
BaF3_EGFRWT cells = assay: Cell growth inhibition assay, BaF3_EGFRWT; conditions: 80 ng/mL recombinant human EGF, 3 days treatment, CellTiterGlo 2.0, read-out: EGFR WT IC50 (nM), cell growth inhibition
BaF3_HER2WT cells = assay: Cell growth inhibition assay, BaF3_HER2WT; conditions: 3 days treatment, CellTiterGlo 2.0, read-out: HER2 WT IC50 (nM), cell growth inhibition
BaF3_HER2YVMA cells = assay: Cell growth inhibition assay, BaF3_HER2YVMA; conditions: BaF3_HER2YVMA cells, 3 days treatment, CellTiterGlo 2.0, read-out: HER2-YVMA IC50 (nM), cell growth inhibition

| Compound | IC50 (BaF3_EGFRWT cells; 72 h) | IC50 (BaF3_HER2WT cells; 72 h) | IC50 (BaF3_HER2YVMA cells) | IC50 (BaF3_HER2YVMA cells; 72 h) | IC50 (BaF3_EGFRWT cells) | IC50 (BaF3_HER2WT cells) |
| --- | --- | --- | --- | --- | --- | --- |
| C=C(CN(C)C)C(=O)N1C2C=C(c3ccn4ncnc(Nc5ccc(Oc6ccn7ncnc7c6)c(C)c5)c34)CC1CC2 (stereo not drawn) [Example 30, 1-(3-(4-((4-([1,2,4]triazolo[1,5-a]pyridin-7-yloxy)-3-methylphenyl)amino)pyrrolo[2,1-f][1,2,4]triazin-5-yl)-8-azabicyclo[3.2.1]oct-2-en-8-yl)-2-((dimethylamino)methyl)prop-2-en-1-one acetate] | 1500 to 5000 nM | < 200 nM |  | < 200 nM |  |  |
| CO[C@@H]1CN(C/C=C/C(=O)N2CCC(c3ccn4ncnc(Nc5ccc(Oc6ccc7c(c6)ncn7C)c(C)c5)c34)CC2)C[C@H]1OC [Example 168, (E)-4-((3R,4R)-3,4-dimethoxypyrrolidin-1-yl)-1-(4-(4-((3-methyl-4-((1-methyl-1H-benzo[d]imidazol-5-yl)oxy)phenyl)amino)pyrrolo[2,1-f][1,2,4]triazin-5-yl)piperidin-1-yl)but-2-en-1-one] | 1500 to 5000 nM | < 200 nM |  | < 200 nM |  |  |
| Cc1cc(Nc2ncnn3ccc(N4CCN(C(=O)C(F)Cl)CC(F)(F)C4)c23)ccc1Oc1ccn2ncnc2c1 (stereo not drawn) [Example 63, 1-(4-(4-((4-([1,2,4]triazolo[1,5-a]pyridin-7-yloxy)-3-methylphenyl)amino)pyrrolo[2,1-f][1,2,4]triazin-5-yl)-6,6-difluoro-1,4-diazepan-1-yl)-2-chloro-2-fluoroethan-1-one] | 1500 to 5000 nM | 500 to 1500 nM |  | 500 to 1500 nM |  |  |
| C=CC(=O)N1CCC2CCC(C1)N2c1ccn2ncnc(Nc3ccc(Oc4ccn5ncnc5c4)c(C)c3)c12 (stereo not drawn) [Example 55, 1-(9-(4-((4-([1,2,4]triazolo[1,5-a]pyridin-7-yloxy)-3-methylphenyl)amino)pyrrolo[2,1-f][1,2,4]triazin-5-yl)-3,9-diazabicyclo[4.2.1]nonan-3-yl)prop-2-en-1-one] | 1500 to 5000 nM | < 200 nM |  | 500 to 1500 nM |  |  |
| Cc1cc(Nc2ncnn3ccc(C4CCN(C(=O)/C=C/CN5CCC6(COC6)C5)CC4)c23)ccc1Oc1ccc2c(c1)ncn2C [Example 129, (E)-1-(4-(4-((3-methyl-4-((1-methyl-1H-benzo[d]imidazol-5-yl)-oxy)phenyl)amino)-pyrrolo[2,1-f][1,2,4]triazin-5-yl)piperidin-1-yl)-4-(2-oxa-6-azaspiro[3.4]octan-6-yl)but-2-en-1-one] | 1500 to 5000 nM | < 200 nM |  | < 200 nM |  |  |
| C=CC(=O)N1CC2(C1)CN(c1ccn3ncnc(Nc4cnc(Oc5ccn6ncnc6c5)c(Cl)c4)c13)C2 [Example 15, 1-(6-(4-((6-([1,2,4]triazolo[1,5-a]pyridin-7-yloxy)-5-chloropyridin-3-yl)amino)pyrrolo[2,1-f][1,2,4]triazin-5-yl)-2,6-diazaspiro[3.3]heptan-2-yl)prop-2-en-1-one] | 1500 to 5000 nM | 1500 to 5000 nM |  | > 5000 nM |  |  |
| C=CC(=O)N1CC2CCC(C1)N2c1ccn2ncnc(Nc3ccc(Oc4ccn5ncnc5c4)c(C)c3)c12 [Example 44, 1-(8-(4-((4-([1,2,4]triazolo[1,5-a]pyridin-7-yloxy)-3-methylphenyl)amino)pyrrolo[2,1-f][1,2,4]triazin-5-yl)-3,8-diazabicyclo[3.2.1]octan-3-yl)prop-2-en-1-one] | 1500 to 5000 nM | < 200 nM |  | < 200 nM |  |  |
| C=C(F)C(=O)N1CC=C(c2ccn3ncnc(Nc4ccc(Oc5ccn6ncnc6c5)c(C)c4)c23)CC1 [Example 26, 1-(4-(4-((4-([1,2,4]triazolo[1,5-a]pyridin-7-yloxy)-3-methylphenyl)amino)pyrrolo[2,1-f][1,2,4]triazin-5-yl)-3,6-dihydropyridin-1(2H)-yl)-2-fluoroprop-2-en-1-one] | 1500 to 5000 nM | 200 to 500 nM |  | 1500 to 5000 nM |  |  |
| C=CC(=O)N1CCN(c2ccn3ncnc(Nc4ccc(Oc5ccn6ncnc6c5)c(C)c4)c23)CC12CC2 [Example 75, 1-(7-(4-((4-([1,2,4]triazolo[1,5-a]pyridin-7-yloxy)-3-methylphenyl)amino)pyrrolo[2,1-f][1,2,4]triazin-5-yl)-4,7-diazaspiro[2.5]octan-4-yl)prop-2-en-1-one] | 500 to 1500 nM | < 200 nM |  | < 200 nM |  |  |
| C=CC(=O)N1CCN(c2ccn3ncnc(Nc4ccc(Oc5ccc6c(c5)ncn6C)c(C)c4)c23)CC1 [Example 121, 1-(4-(4-((3-methyl-4-((1-methyl-1H-benzo[d]imidazol-5-yl)oxy)phenyl)amino)pyrrolo[2,1-f][1,2,4]triazin-5-yl)piperazin-1-yl)prop-2-en-1-one] | 500 to 1500 nM | < 200 nM |  | < 200 nM |  |  |

Results, then the compound that gave them:

| IC50 (BaF3_EGFRWT cells; 72 h) | IC50 (BaF3_HER2WT cells; 72 h) | IC50 (BaF3_HER2YVMA cells) | IC50 (BaF3_HER2YVMA cells; 72 h) | IC50 (BaF3_EGFRWT cells) | IC50 (BaF3_HER2WT cells) | Compound |
| --- | --- | --- | --- | --- | --- | --- |
| 1500 to 5000 nM | < 200 nM | 500 to 1500 nM |  |  |  | C=C(CN(C)C)C(=O)N1CCCC(c2ccn3ncnc(Nc4ccc(Oc5ccn6ncnc6c5)c(C)c4)c23)CC1 (single isomer, unassigned) [Examples 143 and 144, first eluting isomer, 1-(4-(4-((4-([1,2,4]triazolo[1,5-a]pyridin-7-yloxy)-3-methylphenyl)amino)pyrrolo[2,1-f][1,2,4]triazin-5-yl)azepan-1-yl)-2-((dimethylamino)methyl)prop-2-en-1-one] |
| 1500 to 5000 nM | < 200 nM |  | 500 to 1500 nM |  |  | C=CC(=O)NC1CCCN(c2ccn3ncnc(Nc4ccc(Oc5ccn6ncnc6c5)c(C)c4)c23)C1 (stereo not drawn) [Example 76, N-(1-(4-((4-([1,2,4]triazolo[1,5-a]pyridin-7-yloxy)-3-methylphenyl)amino)pyrrolo[2,1-f][1,2,4]triazin-5-yl)piperidin-3-yl)acrylamide] |
| 1500 to 5000 nM | < 200 nM |  | < 200 nM |  |  | Cc1cc(Nc2ncnn3ccc(C4CN(C(=O)/C=C/CN(C)C)C4)c23)ccc1Oc1ccn2ccnc2c1 [Example 157, (E)-4-(dimethylamino)-1-(3-(4-((4-(imidazo[1,2-a]pyridin-7-yloxy)-3-methylphenyl)amino)pyrrolo [2,1-f][1,2,4]triazin-5-yl)azetidin-1-yl)but-2-en-1-one] |
| 1500 to 5000 nM | < 200 nM |  | < 200 nM |  |  | C=CC(=O)N1CC2(CC(c3ccn4ncnc(Nc5ccc(Oc6ccn7ncnc7c6)c(C)c5)c34)C2)C1 [Example 17, 1-(6-(4-((4-([1,2,4]triazolo[1,5-a]pyridin-7-yloxy)-3-methylphenyl)amino)pyrrolo[2,1-f][1,2,4]triazin-5-yl)-2-azaspiro[3.3]heptan-2-yl)prop-2-en-1-one] |
| 1500 to 5000 nM | < 200 nM |  | < 200 nM |  |  | Cc1cc(Nc2ncnn3ccc(C4CN(C(=O)/C=C/CN5CCOCC5)C4)c23)ccc1Oc1ccn2ncnc2c1 [Example 37, (E)-1-(3-(4-((4-([1,2,4]triazolo[1,5-a]pyridin-7-yloxy)-3-methylphenyl)amino)pyrrolo[2,1-f][1,2,4]triazin-5-yl)azetidin-1-yl)-4-morpholinobut-2-en-1-one] |
| 500 to 1500 nM | < 200 nM |  | < 200 nM |  |  | C=CC(=O)N1CC(c2ccn3ncnc(Nc4ccc(Oc5ccn6ncnc6c5)c(C)c4)c23)C1 [Example 3, 1-(3-(4-((4-([1,2,4]triazolo[1,5-a]pyridin-7-yloxy)-3-methylphenyl)amino)pyrrolo[2,1-f][1,2,4]triazin-5-yl)azetidin-1-yl)prop-2-en-1-one] |
| 500 to 1500 nM | < 200 nM |  | < 200 nM |  |  | Cc1cc(Nc2ncnn3ccc(C4CN(C(=O)/C=C/CN(C)C)C4)c23)ccc1Oc1cc2ncnn2cn1 [Example 158, (E)-1-(3-(4-((4-([1,2,4]triazolo[1,5-c]pyrimidin-7-yloxy)-3-methylphenyl)amino)pyrrolo[2,1-f][1,2,4]triazin-5-yl)azetidin-1-yl)-4-(dimethylamino)but-2-en-1-one] |
| 1500 to 5000 nM | < 200 nM |  | < 200 nM |  |  | CNC/C=C/C(=O)N1CC(c2ccn3ncnc(Nc4ccc(Oc5ccn6ncnc6c5)c(C)c4)c23)C1 [Example 151, (E)-1-(3-(4-((4-([1,2,4]triazolo[1,5-a]pyridin-7-yloxy)-3-methylphenyl)amino)pyrrolo[2,1-f][1,2,4]triazin-5-yl)azetidin-1-yl)-4-(methylamino)but-2-en-1-one] |
|  |  | < 200 nM |  | 500 to 1500 nM | < 200 nM | Cc1cc(Nc2ncnn3ccc(C4CCCN(C(=O)C(F)Cl)CC4)c23)ccc1Oc1ccn2ncnc2c1 (single isomer, unassigned) [Examples 145, 146, 147 and 148, second eluting isomer, 1-(4-(4-((4-([1,2,4]triazolo[1,5-a]pyridin-7-yloxy)-3-methylphenyl)amino)pyrrolo[2,1-f][1,2,4]triazin-5-yl)azepan-1-yl)-2-chloro-2-fluoroethan-1-one] |
| 1500 to 5000 nM | 1500 to 5000 nM |  | > 5000 nM |  |  | Cc1cc(Nc2c(C#N)cnn3ccc(C4CN(C(=O)/C=C/CN(C)C)C4)c23)ccc1Oc1ccn2ncnc2c1 [Example 86, (E)-4-((4-([1,2,4]triazolo[1,5-a]pyridin-7-yloxy)-3-methylphenyl)amino)-5-(1-(4-(dimethylamino)-but-2-enoyl)azetidin-3-yl)pyrrolo[1,2-b]pyridazine-3-carbonitrile] |
| 1500 to 5000 nM | < 200 nM |  | < 200 nM |  |  | COC1CCN(C/C=C/C(=O)N2CCC(c3ccn4ncnc(Nc5ccc(Oc6ccn7ncnc7c6)c(C)c5)c34)CC2)C1 (stereo not drawn) [Example 118, E-1-(4-(4-((4-([1,2,4]triazolo[1,5-a]-207-midazol-7-yloxy)-3-methylphenyl)amino)pyrrolo[2,1-f][1,2,4]triazin-5-yl)piperidin-1-yl)-4-(3-methoxypyrrolidin-1-yl)but-2-en-1-one] |
